This is an account of results in patent US11814364B2, “Pyridine N-oxide derivatives useful as factor XIa inhibitors” (Janssen Pharmaceutica NV, priority 2021, dated 2023).

For orientation: IC50 means the concentration that gives 50% inhibition.

Chain of human plasma kallikrein (P03952 391-638 limits assumed): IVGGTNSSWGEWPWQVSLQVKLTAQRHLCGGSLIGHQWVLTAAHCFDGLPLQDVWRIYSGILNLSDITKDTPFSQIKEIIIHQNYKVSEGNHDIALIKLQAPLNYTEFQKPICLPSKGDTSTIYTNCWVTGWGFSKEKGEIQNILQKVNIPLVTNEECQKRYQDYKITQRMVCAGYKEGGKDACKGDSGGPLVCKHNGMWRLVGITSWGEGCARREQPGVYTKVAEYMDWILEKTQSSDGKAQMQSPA
Chain of human plasma kallikrein (P03952 20-390 partner limits assumed): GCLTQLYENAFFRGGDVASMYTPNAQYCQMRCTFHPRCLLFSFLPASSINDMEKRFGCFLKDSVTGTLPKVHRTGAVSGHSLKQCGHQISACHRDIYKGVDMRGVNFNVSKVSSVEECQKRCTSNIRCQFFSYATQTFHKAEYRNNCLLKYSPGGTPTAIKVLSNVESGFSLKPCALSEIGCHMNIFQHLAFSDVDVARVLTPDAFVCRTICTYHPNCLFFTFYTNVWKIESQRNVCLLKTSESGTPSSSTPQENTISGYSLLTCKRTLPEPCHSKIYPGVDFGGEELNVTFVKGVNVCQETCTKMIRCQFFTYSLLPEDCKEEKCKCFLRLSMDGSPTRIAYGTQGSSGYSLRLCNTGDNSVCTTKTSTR

The target in this assay is human plasma kallikrein (Homo sapiens, UniProt P03952). Kind of assay: Kallikrein inhibition FLINT assay with quenched AMC peptide substrate Z-Gly-Pro-Arg-AMC (end point EP or kinetic KIN reads). The assay is classed as biochemical. Conditions: kinetic reads at 5 min intervals over 30 min; read-out: Kallikrein (KIN) IC50. The gist of the method:
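Enzyme and compound were preincubated 30 min before adding 50 μM AMC substrate in pH 7.5 Tris/NaCl/CaCl2/BSA/CHAPS buffer. AMC release was read at 30 min endpoint or every 5 min.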
Take `[O-][n+]1cc(-c2c(-n3cnnn3)ccc(Cl)c2F)ccc1C(Cn1cc(F)cn1)n1cc(-c2ccnc(C(F)(F)F)n2)cn1` (stereo not drawn) [Example P469]: the IC50 amounted to 36.2 nM.

As to `COC(=O)N(C)CC(c1ccc(-c2c(-n3cnnn3)ccc(Cl)c2F)c[n+]1[O-])n1cc(-c2ccc(N)nc2F)cn1` (stereo not drawn) [Example P482], the half-inhibitory concentration (IC50) is 22.9 nM. Then `CCOC(=O)C1CC1CC(c1ccc(-c2cc(Cl)ccc2-n2cnnn2)c[n+]1[O-])n1cc(-c2ccc(C(=O)O)cc2)cn1` (stereo not drawn) [Example P67], with 362 nM; and `[O-][n+]1cc(-c2c(-n3cc(Cl)nn3)ccc(Cl)c2F)ccc1C(Cn1cccn1)n1cc(-c2cn(C(F)F)nn2)cn1` (single isomer, unassigned) [Example P664], with 380 nM; and `CCCC(c1ccc(-c2c(-n3cnnn3)ccc(Cl)c2F)c[n+]1[O-])n1cc(-c2ccc(NC(=O)OC)cc2)cn1` (stereo not drawn) [Example P156], with 86.7 nM. For `[2H]C([2H])([2H])C([2H])([2H])CC(c1ccc(-c2c(-n3cc(Cl)nn3)ccc(Cl)c2F)c[n+]1[O-])n1cc(-c2ccc(C(N)=O)c(F)c2)cn1` (stereo not drawn) [Example P926], the IC50 came out at 19.2 nM. Next, `Cc1cc(-c2cnn(C(Cn3cccn3)c3ccc(-c4c(-n5cnnn5)ccc(Cl)c4F)c[n+]3[O-])c2)ccn1` (stereo not drawn) [Example P310]: 9 nM; `O=C(c1ccn(CC(c2ccc(-c3c(-n4cnnn4)ccc(Cl)c3F)c[n+]2[O-])n2cc(-c3cc[n+]([O-])cc3)cn2)n1)N1CCCCC1` (stereo not drawn) [Example P447]: 4.3 nM. Next, `COCC(=O)N(C)CC(c1ccc(-c2c(-n3cnnn3)ccc(Cl)c2F)c[n+]1[O-])n1cc(-c2ccnc(C(F)(F)F)c2)cn1` (stereo not drawn) [Example P427]: 66.8 nM. On to `O=C(O)c1ccc(-c2cnn(C(CCOC(F)F)c3ccc(-c4c(-n5cc(C(F)(F)F)nn5)ccc(Cl)c4F)c[n+]3[O-])c2)cc1` (stereo not drawn) [Example P838], for which the half-inhibitory concentration (IC50) amounted to 30.7 nM.

Turning to `O=C(O)c1ccc(-c2cnn(C(Cc3ccn(C(F)F)n3)c3ccc(-c4c(C(F)F)ccc(Cl)c4F)c[n+]3[O-])c2)cc1F` (single isomer, unassigned) [Example Q64], the IC50 was 4.7 nM. In the case of `NC(=O)c1ccc(-c2cnn(C(Cc3nccs3)c3ccc(-c4c(-n5cc(C(F)(F)F)nn5)ccc(Cl)c4F)c[n+]3[O-])c2)cc1F` (single isomer, unassigned) [Example P943], the IC50 was 6.2 nM. Next, `COCC[C@H](c1ccc(-c2c(-n3cnnn3)ccc(Cl)c2F)c[n+]1[O-])n1cc(-c2ccn(C(F)F)n2)cn1` [Example P560]: 102 nM; `[O-][n+]1cc(-c2c(-n3cnnn3)ccc(Cl)c2F)ccc1[C@@H](Cc1ccc(F)cc1)n1cc(-c2cn(C(F)F)nn2)cn1` [Example P600]: 43.8 nM; `Cn1ccc(CC(c2ccc(-c3c(-n4cnnn4)ccc(Cl)c3F)c[n+]2[O-])n2cc(-c3ccnc(C#N)c3)cn2)n1` (stereo not drawn) [Example P359]: 10.2 nM. Then `NC(=O)C1CC1CC(c1ccc(-c2cc(Cl)ccc2-n2cnnn2)c[n+]1[O-])n1cc(-c2ccc(C(=O)O)cc2)cn1` (stereo not drawn) [Example P114], with 184 nM; and `COCC[C@H](c1ccc(-c2c(-n3cc(OC(F)F)nn3)ccc(Cl)c2F)c[n+]1[O-])n1cc(-c2cnnn2C)cn1` [Example P616], with 205 nM. Then `[O-][n+]1cc(-c2c(-n3cnnn3)ccc(Cl)c2F)ccc1C(Cn1cc(F)cn1)n1cc(-c2ccnn2C(F)F)cn1` (single isomer, unassigned) [Example P644], with 14.5 nM.

Regarding `[O-][n+]1cc(-c2c(-n3cnnn3)ccc(Cl)c2F)ccc1C(CCOC(F)F)n1cc(-c2c(Cl)cnn2C(F)F)cn1` (stereo not drawn) [Example P574], the IC50 came to 7.9 nM. Then `COCCC(c1ccc(-c2c(-n3cnnn3)ccc(Cl)c2F)c[n+]1[O-])n1cc(-c2ccc(NC(=O)OC)cc2)cn1` (single isomer, unassigned) [Example P84], with 14.5 nM.

Regarding `O=C(NC1CC1)c1ccc(-c2cnn(C(CC3CCCCO3)c3ccc(-c4c(-n5cnnn5)ccc(Cl)c4F)c[n+]3[O-])c2)cc1` (single isomer, unassigned) [Example P80], the 50% inhibitory concentration (IC50) was 53.3 nM. Next, `CN(C)C(=O)N(C)CC(c1ccc(-c2c(-n3cnnn3)ccc(Cl)c2F)c[n+]1[O-])n1cc(-c2ccnc(C(F)(F)F)c2)cn1` (stereo not drawn) [Example P437]: 113 nM. `COc1cc(C(CC2CC2)n2cc(-c3ncnn3C(F)F)cn2)[n+]([O-])cc1-c1c(C#N)ccc(Cl)c1F` (stereo not drawn) [Example Q56]: the IC50 came to 58.9 nM. Then `[O-][n+]1cc(-c2c(-n3cnnn3)ccc(Cl)c2F)ccc1C(C(O)c1ccccc1)n1cc(-c2ccnn2C(F)F)cn1` (single isomer, unassigned) [Example P716], with 22.1 nM; and `N#Cc1cc(-c2cnn(C(CCOC(F)F)c3ccc(-c4c(-n5cnnn5)ccc(Cl)c4F)c[n+]3[O-])c2)ccn1` (stereo not drawn) [Example P458], with 19 nM. Next, `Cn1nnc(F)c1-c1cnn(C(CCOC(F)F)c2ccc(-c3c(-n4cnnn4)ccc(Cl)c3F)c[n+]2[O-])c1` (stereo not drawn) [Example P749]: 19.8 nM; `NC(=O)C1CC1CC(c1ccc(-c2c(-n3cnnn3)ccc(Cl)c2F)c[n+]1[O-])n1cc(-c2cc[n+]([O-])cc2)cn1` (single isomer, unassigned) [Example P283]: 74.5 nM; `O=C1CCCN1CC(c1ccc(-c2c(-n3cnnn3)ccc(Cl)c2F)c[n+]1[O-])n1cc(-c2cc[n+]([O-])c(C(F)F)c2)cn1` (single isomer, unassigned) [Example P362]: 38.3 nM.

With `Nc1nc(Cl)c(-c2cnn(C(CC3CC3)c3ccc(-c4c(-n5cnnn5)ccc(Cl)c4F)c[n+]3[O-])c2)s1` (stereo not drawn) [Example P624], the IC50 worked out at 4.9 nM. Then `[O-][n+]1cc(-c2c(C(F)F)ccc(Cl)c2F)ccc1C(Cn1cc(F)cn1)n1cc(-c2ccnc(C(F)(F)F)c2)cn1` (single isomer, unassigned) [Example Q23], with 80.4 nM; and `N#Cc1cn(-c2ccc(Cl)c(F)c2-c2ccc([C@@H](CCOC(F)F)n3cc(-c4ncnn4C(F)F)cn3)[n+]([O-])c2)nn1` [Example P790], with 35.8 nM; and `Cn1cc(-c2cnn(C(CC3CC3)c3ccc(-c4c(-n5cnnn5)ccc(Cl)c4F)c[n+]3[O-])c2)ccc1=O` (stereo not drawn) [Example P216], with 296 nM.

For `Cn1cc(CC(c2ccc(-c3c(-n4cnnn4)ccc(Cl)c3F)c[n+]2[O-])n2cc(-c3ccnc(C(F)(F)F)c3)cn2)nn1` (stereo not drawn) [Example P695], the IC50 was 43.7 nM. Next, `COC(=O)Nc1ccc(-c2cnn(C(CC(C)C)c3ccc(-c4c(-n5cnnn5)ccc(Cl)c4F)c[n+]3[O-])c2)cc1` (stereo not drawn) [Example P179]: 179 nM. Next, `[O-][n+]1cc(-c2c(-n3cnnn3)ccc(Cl)c2F)ccc1[C@@H](Cc1ccc(C(F)F)cc1)n1cc(-c2cnnn2C(F)F)cn1` [Example P731]: 64.9 nM; `COC(=O)Nc1ccc(-c2cnn(C(CCOC(F)F)c3ccc(-c4c(-n5cnnn5)ccc(Cl)c4F)c[n+]3[O-])c2)cc1` (stereo not drawn) [Example P226]: 3 nM; `[O-][n+]1ccc(-c2cnn(C(CC3CC3)c3ccc(-c4c(-n5cnnn5)ccc(Cl)c4F)c[n+]3[O-])c2)cc1` (single isomer, unassigned) [Example P280]: 84 nM. With `NC(=O)c1ccc(-c2cnn(C(Cc3ccn(C(F)F)n3)c3ccc(-c4c(-n5cc(C(F)(F)F)nn5)ccc(Cl)c4F)c[n+]3[O-])c2)cc1F` (single isomer, unassigned) [Example P906], the IC50 was determined as 6.5 nM.

Consider `O=C(NC1CC1)c1ccc(-c2cnn(C(CC3CCCCO3)c3ccc(-c4c(-n5cnnn5)ccc(Cl)c4F)c[n+]3[O-])c2)cc1` (single isomer, unassigned) [Example P142], for which the half-inhibitory concentration (IC50) was 108 nM. Then `[O-][n+]1cc(-c2c(-n3cnnn3)ccc(Cl)c2F)ccc1C(Cn1cccn1)n1cc(-c2ccncc2)cn1` (stereo not drawn) [Example P269], with 6.1 nM. With `NC(=O)c1ccc(-c2cnn(C(Cc3ccn(C(F)F)n3)c3ccc(-c4c(-n5cc(C(F)(F)F)nn5)ccc(Cl)c4F)c[n+]3[O-])c2)cc1F` (single isomer, unassigned) [Example P891], the half-maximal inhibitory concentration (IC50) came to 536 nM. Next, `[O-][n+]1ccc(-c2cnn(C(Cc3ccc(F)cc3)c3ccc(-c4c(OC(F)F)ccc(Cl)c4F)c[n+]3[O-])c2)cc1` (single isomer, unassigned) [Example Q19]: 48.4 nM.

For the compound `[O-][n+]1cc(-c2c(-n3cnnn3)ccc(Cl)c2F)ccc1C(Cn1cc2c(n1)COCC2)n1cc(-c2ccnc(C(F)(F)F)c2)cn1` (stereo not drawn) [Example P463], the half-inhibitory concentration (IC50) worked out at 6.4 nM.

Turning to `NC(=O)c1scc(-c2cnn(C(CC3CC3)c3ccc(-c4c(-n5cnnn5)ccc(Cl)c4F)c[n+]3[O-])c2)c1F` (single isomer, unassigned) [Example P954], the half-maximal inhibitory concentration (IC50) came to 788 nM.

Consider `COC(=O)N(C)CC(c1ccc(-c2c(-n3cnnn3)ccc(Cl)c2F)c[n+]1[O-])n1cc(-c2cc[n+]([O-])c(C(F)F)c2)cn1` (single isomer, unassigned) [Example P392], for which the IC50 worked out at 64.1 nM. Next, `Cn1cc(CC(c2ccc(-c3c(-n4cnnn4)ccc(Cl)c3F)c[n+]2[O-])n2cc(-c3ccnc(C#N)c3)cn2)cn1` (stereo not drawn) [Example P408]: 17.4 nM; `COCC[C@H](c1ccc(-c2c(-n3cnnn3)ccc(Cl)c2F)c[n+]1[O-])n1cc(-c2cnnn2C(F)F)cn1` [Example P690]: 180 nM; `Cn1nnc(F)c1-c1cnn(C(Cc2ccn(C(F)F)n2)c2ccc(-c3c(-n4cc(Cl)nn4)ccc(Cl)c3F)c[n+]2[O-])c1` (stereo not drawn) [Example P795]: 32.6 nM. Turning to `CC(C)(C)OCC[C@H](c1ccc(-c2c(-n3cnnn3)ccc(Cl)c2F)c[n+]1[O-])n1cc(-c2ccnn2C(F)F)cn1` [Example P640], the IC50 came to 179 nM. Then `Cn1ncnc1-c1cnn(C(Cc2nnco2)c2ccc(-c3c(-n4cc(C(F)(F)F)nn4)ccc(Cl)c3F)c[n+]2[O-])c1` (stereo not drawn) [Example P935], with 487 nM; and `CN(CC(c1ccc(-c2c(-n3cnnn3)ccc(Cl)c2F)c[n+]1[O-])n1cc(-c2ccnc(C(F)(F)F)c2)cn1)C(=O)C1CC1` (single isomer, unassigned) [Example P428], with 64.1 nM.
